Like-named read-outs stand apart in the source and are kept apart here.
Key:
Test in all cases: Kinase profile (33P ATP filter binding)
Type in all cases: biochemical
Conditions in all cases: read-out: Remaining protein kinase activity
EPH-B1 = molecular target: T1, EPH-B1 (Homo sapiens, UniProt P54762)
T1 sequence (P54762 18-984): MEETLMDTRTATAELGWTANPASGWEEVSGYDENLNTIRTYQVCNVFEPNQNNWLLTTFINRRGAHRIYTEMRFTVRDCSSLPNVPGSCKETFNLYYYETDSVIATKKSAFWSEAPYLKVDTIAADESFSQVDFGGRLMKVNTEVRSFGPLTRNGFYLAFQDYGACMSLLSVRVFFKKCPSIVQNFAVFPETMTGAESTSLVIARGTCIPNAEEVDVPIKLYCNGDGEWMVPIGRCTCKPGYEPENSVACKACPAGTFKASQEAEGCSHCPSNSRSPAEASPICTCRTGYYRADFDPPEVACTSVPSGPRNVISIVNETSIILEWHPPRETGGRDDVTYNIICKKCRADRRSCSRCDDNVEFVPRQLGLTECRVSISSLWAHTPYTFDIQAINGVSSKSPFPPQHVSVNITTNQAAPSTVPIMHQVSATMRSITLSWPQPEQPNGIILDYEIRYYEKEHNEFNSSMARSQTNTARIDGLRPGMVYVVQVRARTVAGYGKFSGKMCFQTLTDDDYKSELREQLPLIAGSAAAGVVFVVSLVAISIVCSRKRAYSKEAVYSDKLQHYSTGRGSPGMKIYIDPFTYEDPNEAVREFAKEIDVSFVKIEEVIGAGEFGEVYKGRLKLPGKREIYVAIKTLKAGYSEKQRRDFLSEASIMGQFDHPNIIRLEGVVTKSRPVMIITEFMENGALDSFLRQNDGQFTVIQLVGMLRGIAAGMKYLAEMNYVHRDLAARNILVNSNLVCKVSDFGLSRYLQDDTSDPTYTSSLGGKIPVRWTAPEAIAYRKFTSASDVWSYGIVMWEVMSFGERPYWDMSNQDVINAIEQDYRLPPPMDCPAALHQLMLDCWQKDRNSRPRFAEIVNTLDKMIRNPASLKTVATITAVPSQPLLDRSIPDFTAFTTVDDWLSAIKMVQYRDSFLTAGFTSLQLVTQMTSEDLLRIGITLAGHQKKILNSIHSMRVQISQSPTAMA

PKCz = molecular target: T2, PKCz (Homo sapiens, UniProt Q05513)
T2 sequence (Q05513 1-592): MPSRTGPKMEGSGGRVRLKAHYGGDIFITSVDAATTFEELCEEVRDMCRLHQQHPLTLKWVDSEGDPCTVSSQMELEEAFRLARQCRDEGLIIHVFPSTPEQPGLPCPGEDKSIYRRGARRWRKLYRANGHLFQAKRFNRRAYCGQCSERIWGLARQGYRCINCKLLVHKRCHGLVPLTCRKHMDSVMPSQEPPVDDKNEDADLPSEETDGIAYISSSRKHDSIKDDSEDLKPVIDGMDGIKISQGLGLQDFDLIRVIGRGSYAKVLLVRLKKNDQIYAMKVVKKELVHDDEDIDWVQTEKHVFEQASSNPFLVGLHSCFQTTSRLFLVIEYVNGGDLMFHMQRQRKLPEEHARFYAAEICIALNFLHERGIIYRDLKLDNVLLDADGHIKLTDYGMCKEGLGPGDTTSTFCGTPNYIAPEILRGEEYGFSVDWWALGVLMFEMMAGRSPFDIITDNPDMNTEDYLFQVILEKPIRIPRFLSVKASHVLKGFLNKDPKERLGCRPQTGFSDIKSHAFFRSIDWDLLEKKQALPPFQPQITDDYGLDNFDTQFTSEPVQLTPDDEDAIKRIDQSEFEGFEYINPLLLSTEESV

p38d MAPK = molecular target: T3, p38d MAPK (Homo sapiens, UniProt O15264)
T3 sequence (O15264 1-365): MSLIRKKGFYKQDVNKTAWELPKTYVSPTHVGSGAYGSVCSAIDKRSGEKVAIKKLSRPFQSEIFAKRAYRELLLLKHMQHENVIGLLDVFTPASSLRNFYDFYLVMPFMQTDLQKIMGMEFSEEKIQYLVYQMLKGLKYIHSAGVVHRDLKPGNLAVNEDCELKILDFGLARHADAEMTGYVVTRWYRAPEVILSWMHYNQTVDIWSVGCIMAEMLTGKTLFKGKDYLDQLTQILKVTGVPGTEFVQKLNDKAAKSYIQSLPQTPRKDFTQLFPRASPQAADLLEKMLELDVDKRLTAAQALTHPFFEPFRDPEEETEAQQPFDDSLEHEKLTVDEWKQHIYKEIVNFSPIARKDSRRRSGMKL

SMILES: COc1ccc2sc(-c3cncc(NC(C)=O)c3)nc2c1 [PST-001, N-(5-(5-Methoxybenzo[d]thiazol-2-yl)pyridin-3-yl)acetamide]
- remaining activity at 1 µM (EPH-B1): 117%
- remaining activity at 100 µM (EPH-B1): 108%
- remaining activity at 1 µM (PKCz): 119%
- remaining activity at 100 µM (PKCz): 124%
- remaining activity at 1 µM (p38d MAPK): 115%
- remaining activity at 100 µM (p38d MAPK): 112%

SMILES: COc1ccc2sc(-c3cncc(N)c3)nc2c1 [compound 1, 5-(5-Methoxybenzo[d]thiazol-2-yl)pyridin-3-amine]
- remaining activity at 1 µM (EPH-B1; EPH-B1, 1 μM): 122%
- remaining activity at 100 µM (EPH-B1; EPH-B1, 100 μM): 91%
- remaining activity at 1 µM (PKCz; PKCz, 1 μM): 106%
- remaining activity at 100 µM (PKCz; PKCz, 100 μM): 128%
- remaining activity at 1 µM (p38d MAPK; p38d MAPK, 1 μM): 116%
- remaining activity at 100 µM (p38d MAPK; p38d MAPK, 100 μM): 95%

Reference: PMC8617627, “Novel DYRK1A Inhibitor Rescues Learning and Memory Deficits in a Mouse Model of Down Syndrome” (Pharmaceuticals, 2021)
